Measured values published in the supplement of paper PMC8967900.

Assays:
Assay in all cases: selective drug sensitivity score (sDSS, relative to normal bone marrow) (sDSS (score)); higher = more potent and effective on the cell line relative to normal bone marrow cells
Conditions in all cases: 72 h
HPB-ALL = test system: HPB-ALL
COG-LL-394h = test system: COG-LL-394h
CCRF-HSB2 = test system: CCRF-HSB2
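Note: ALL cell lines in 384-well plates, five doses spanning 10,000-fold, each plate scaled between vehicle and 100 µmol/L benzalkonium chloride controls, sDSS an adapted area-under-curve metric.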

Compound | selective drug sensitivity score (HPB-ALL) | selective drug sensitivity score (COG-LL-394h) | selective drug sensitivity score (CCRF-HSB2)
CC(C)(C)c1cc(NC(=O)Nc2ccc(-c3cn4c(n3)sc3cc(OCCN5CCOCC5)ccc34)cc2)no1 [Quizartinib] (top concentration 1000 nM) | 5.18 | -0.32 | -0.12
Nc1cc(F)ccc1NC(=O)/C=C/c1cnn(C/C=C/c2ccccc2)c1 [RGFP966] (top concentration 10000 nM) | 11 | 2.34 | 15.9
CNC(=O)c1cc(Oc2ccc(NC(=O)Nc3ccc(Cl)c(C(F)(F)F)c3)c(F)c2)ccn1 [Regorafenib] (top concentration 10000 nM) | 1.34 | 5.94 | 6.14
CN(C)Cc1ccc(S(=O)(=O)n2ccc(/C=C/C(=O)NO)c2)cc1 [Resminostat] (top concentration 10000 nM) | 6.24 | 2.04 | 2.24
COc1cc(OC)c(/C=C/S(=O)(=O)Cc2ccc(OC)c(NCC(=O)O)c2)c(OC)c1 [Rigosertib] (top concentration 10000 nM) | 13.5 | 6.76 | 14.6
COc1ccc(CCc2nc3cc(-c4c(C)noc4C)ccc3n2C[C@H](C)N2CCOCC2)cc1Cl [SGC-CBP30] (top concentration 25000 nM) | 1.88 | 5.38 | 2.38
CCS(=O)(=O)c1cccc(-c2cc(C(=O)NC3CCN(C)CC3)c(C)c3[nH]c4ncc(C)cc4c23)c1 [TAK-901] (top concentration 1000 nM) | 5.36 | 3.66 | 13.6
Nc1nc(NC2CC2)cc(-c2cccc(Cl)c2Cl)n1 [TH588] (top concentration 25000 nM) | 3.92 | -0.58 | 8.42
CC(=O)Nc1ccc(C(=O)Nc2ccccc2N)cc1 [Tacedinaline] (top concentration 1000 nM) | -0.02 | -0.02 | 2.98
Cn1ncnc1[C@H]1c2n[nH]c(=O)c3cc(F)cc(c23)N[C@@H]1c1ccc(F)cc1 [Talazoparib] (top concentration 1000 nM) | -4.92 | -0.62 | 7.68
COc1cccc2c1c(O)c(C(=O)N(C)c1ccc(C(F)(F)F)cc1)c(=O)n2C [Tasquinimod] (top concentration 10000 nM) | -0.42 | -0.42 | 2.38
Nc1nc2[nH]cnc2c(=S)[nH]1 [Thioguanine] (top concentration 10000 nM) | 11.2 | 2.44 | 14.7
CC#CC(=O)N1CC[C@@H](n2c(=O)n(-c3ccc(Oc4ccccc4)cc3)c3c(N)ncnc32)C1 [Tirabrutinib] (top concentration 1000 nM) | 0 | 0 | 0.8
CC(C)C[C@@H](C(=O)N[C@H](C(=O)OC1CCCC1)c1ccccc1)[C@H](O)C(=O)NO [Tosedostat] (top concentration 10000 nM) | -4.94 | 1.26 | 3.16
CS(=O)(=O)c1ccc(-c2cnc(N)c(C(=O)Nc3ccccc3)n2)cc1 [VE-821] (top concentration 10000 nM) | 5.04 | -0.66 | 4.44
CNC(=O)c1ccccc1Nc1cc(Nc2ccc(N3CCOCC3)cc2OC)ncc1C(F)(F)F [VS-4718] (top concentration 10000 nM) | 1.7 | -0.4 | 3.5
Cc1cccc(-c2[nH]c(CNc3ccccc3F)nc2-c2ccc3ncnn3c2)n1 [Vactosertib (TEW-7197)] (top concentration 2500 nM) | -0.5 | -0.5 | 5.1
O=C(/C=C\n1cnc(-c2cc(C(F)(F)F)cc(C(F)(F)F)c2)n1)NNc1ccccn1 [Verdinexor] (top concentration 1000 nM) | 1.84 | 3.64 | 9.84
CC[C@@H]1C(=O)N(C)c2cnc(Nc3ccc(C(=O)N[C@H]4CC[C@H](N5CCN(CC6CC6)CC5)CC4)cc3OC)nc2N1C(C)C [Volasertib] (top concentration 1000 nM) | 15.5 | 7.7 | 12.4
O=C(CCCCCCC(=O)Nc1ccccc1)NO [Vorinostat] (top concentration 10000 nM) | 6 | 1 | 4.8
